Data reported in ChEMBL document CHEMBL1136260, “[18F]FMDAA1106 and [18F]FEDAA1106: two positron-emitter labeled ligands for peripheral benzodiazepine receptor (PBR)” (Bioorg Med Chem Lett, 2003).

How the values were obtained:
[1] = target: GABA-A receptor; anion channel; assay: In vitro displacement of [11C]Flumazenil from (CBR) central GABA-A benzodiazepine receptor of rat brain
[2] = Partition coefficient (logP); format: physicochemical; conditions: octanol/water
Translocator protein = Translocator protein (Rattus norvegicus, UniProt P16257); assay: In vitro binding affinity for PBR (peripheral benzodiazepine receptor) in rat brain; format: tissue-based
Translocator protein, sequence (P16257 whole entry, looked up): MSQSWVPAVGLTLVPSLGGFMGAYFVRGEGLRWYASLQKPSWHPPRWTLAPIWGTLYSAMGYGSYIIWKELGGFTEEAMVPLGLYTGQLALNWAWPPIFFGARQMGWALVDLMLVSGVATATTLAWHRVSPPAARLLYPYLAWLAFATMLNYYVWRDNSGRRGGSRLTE

IC50 [1] [µM] | logP [2] | Ki (Translocator protein) [pM] | SMILES
> 10 | 3.81 | – | COc1ccc(OCCF)c(CN(C(C)=O)c2cc(F)ccc2Oc2ccccc2)c1
> 10 | 3.65 | 43 | COc1ccc(OC)c(CN(C(C)=O)c2cc(F)ccc2Oc2ccccc2)c1
> 10 | 3.7 | – | COc1ccc(OCF)c(CN(C(C)=O)c2cc(F)ccc2Oc2ccccc2)c1
> 10 | – | – | CC[C@@H](C)N(C)C(=O)c1cc2ccccc2c(-c2ccccc2Cl)n1 [PK-11195]
